Experimental data published in patent publication US20060121085A1, “Formulations for cell-schedule dependent anticancer agents” (priority 2003, published 2006).
Read-outs that look alike come from different tables or passages of the source.

Experiments:
[1] = test system: subcutaneous Hey (Human Ovarian Cancer) tumors; details: 100 mg/kg FUDR/Saline × 2 (1 & 14 days), i.p., 20 μL
Procedure: In this study, SCID mice bearing established (˜0.5 cm diameter) SC ovarian (Hey) tumors were used in this study and were randomized to equalize the tumor volume prior to initiation of drug therapy. Doses of 50 and 100 mg/kg were administered intratumorally. Floxuridine in saline at 100 mg/kg was administered by intraperitoneal injection. ATRIGEL® alone was administered in a volume equal to the 100 mg/kg group.
Mice were injected with 10×10^6 Hey (Human Ovarian Cancer) cells. When the average tumor diameter was approximately 0.5 cm, mice were divided into treatment groups such that the mean tumor volume in each group was equivalent and drug was administered. […] The volume of Floxuridine/polymer used was calculated assuming total release of drug from the polymer and a drug concentration of 0.10 mg/μL of polymer. […]
• All SCID mice used for this study were screened for IgG production and those mice producing IgG (“leaky”) were eliminated from the study group. • Mice were injected with 10×10^6 Hey cells. • When tumors achieved approximately 0.5 cm diameter, drug treatments were initiated. […] All treatments consisted of two injections (Days 1 and 14). • Mice were monitored weekly for weight, tumor size and toxicity symptoms (survival, general health, fur condition, etc.) for at least 5 weeks and the efficacy was compared

[2] = mouse at 2.5 and 100 mg/kg (cleft palate, skeletal defects, limb deformities); cited from earlier work
mouse embryo fibroblasts = details: cited from earlier work
[3] = Mouse; cited from earlier work
[4] = Rat; cited from earlier work
[5] = Rabbit; cited from earlier work
[6] = Dog; cited from earlier work
[7] = cited from earlier work
[8] = cited from earlier work; remark: listed apart in the source

O=c1[nH]c(=O)n([C@H]2C[C@H](O)[C@@H](CO)O2)cc1F [FUDR, 5-fluorodeoxyuridine]
Mortality (%) [1]: 0%
Mortality (%) ([1]; listed as free Floxuridine): all surviving
Teratogenicity [2]: Teratogenic
Mutagenicity (mouse embryo fibroblasts): Mutagenic
Lethal Intravenous Doses [3]: 880 +/− 51
Lethal Intravenous Doses [4]: 670 +/− 73
Lethal Intravenous Doses [5]: 94 +/− 19.6
Lethal Intravenous Doses [6]: 157 +/− 46
MTD, cumulative dose ([7]; 50 mg/kg/day × 5 days): 250 mg/kg
maximum tolerated dose (MTD) ([7]; normal (immunocompetent) mice, intraperitoneal injection, × 5 days): 50 mg/kg/day
Reproductive Toxicant, female ([8]; female rats at 25 or 50 mg/kg): reproductive toxicity
Teratogenicity ([8]; rat at 75 and 150 mg/kg (cleft palate, skeletal defects, limb deformities)): Teratogenic
Reproductive Toxicant, male ([8]; rats at 125-250 mg/kg i.p.): spermato-toxic
